IC50 data for 35 compounds are collected here from patent US20240245673A1, “Papain-like protease (PLpro) inhibitors” (Pfizer Inc., priority 2022, published 2024).

The target in one assay is SARS-CoV-2 Papain like protease (PLpro) (Severe acute respiratory syndrome coronavirus 2 (2019-nCoV) (SARS-CoV-2), UniProt P0DTD1). The experiment in a line: Papain Like Protease (PLpro) biochemical assay with profluorogenic substrate Z-RLRGG-AMC. The following applies: IC50 (μM), SARS-CoV-2 PLpro 6.25 nM, 25 μM Z-RLRGG-AMC substrate, 60 minute reaction.
What is called IC50 is the concentration at which inhibition is half-maximal. On to `Cc1ccc(N2CC3CC(C2)N3C)cc1C(=O)N[C@H](C)c1cc(-c2cnn(C)c2)nc2ccccc12` [Example 252, 2-methyl-N—((R)-1-(2-(1-methyl-1H-pyrazol-4-yl)quinolin-4-yl)ethyl)-5-(6-methyl-3,6-diazabicyclo[3.1.1]heptan-3-yl)benzamide], for which inhibition was half-maximal at 0.005 µM (IC50). `Cc1ccc(N2CC3CC(C2)N3C)cc1C(=O)NC1(c2cc(-c3cnn(C)c3)nc3ccccc23)CC1` [Example 290, 2-methyl-N-(1-(2-(1-methyl-1H-pyrazol-4-yl)quinolin-4-yl)cyclopropyl)-5-(6-methyl-3,6-diazabicyclo[3.1.1]heptan-3-yl)benzamide]: it took 0.001 µM to reach half-maximal inhibition (IC50).

Turning to `Cc1ccc(CN)cc1C(=O)NC(C)c1cc(-n2ccnc2)nc2ccccc12` (centres unmarked) [Example 36, N-(1-(2-(1H-imidazol-1-yl)quinolin-4-yl)ethyl)-5-(aminomethyl)-2-methylbenzamide], the IC50 is 0.21 µM.

The assay is the same for the next values; noted with them: SARS-CoV-2 PLpro 6.25 nM, 25 μM Z-RLRGG-AMC substrate, 60 minute reaction; read-out: IC50.
`Cc1ccccc1C(=O)NC(C)c1cc(-c2cn(C)nc2C(F)(F)F)nc2ccccc12` (centres unmarked) [Example 132, 2-methyl-N-(1-{2-[1-methyl-3-(trifluoromethyl)-1H-pyrazol-4-yl]quinolin-4-yl}ethyl) benzamide]: the concentration for half-maximal inhibition (IC50) came to 0.844 µM. With `Cc1ccc(N2CC3CNCC3C2)cc1C(=O)N[C@H](C)c1cc(-c2cnn(C)c2)nc2ccccc12` (some centres unmarked) [Example 261], the IC50 was determined as 0.021 µM. On the same count and under the same terms, as for `Cc1ccccc1C(=O)NC(C)c1cc(-c2ccc3ncnn3c2)nc2ccccc12` (centres unmarked) [Example 118, 2-methyl-N-{1-[2-([1,2,4]triazolo[1,5-a]pyridin-6-yl)quinolin-4-yl]ethyl}benzamide], the figure is 1.32 µM.

As to `Cc1cc(C2(NC(=O)c3cscn3)CC2)ccc1C(=O)N[C@H](C)c1cc(-c2cnn(C)c2)nc2ccccc12` [Example 212, (R)-N-(1-(3-methyl-4-((1-(2-(1-methyl-1H-pyrazol-4-yl)quinolin-4-yl)ethyl)carbamoyl)phenyl)cyclopropyl)thiazole-4-carboxamide], the IC50 worked out at 0.058 µM. Take `Cc1ccccc1C(=O)N[C@H](C)c1cc(OCCO)nc2ccccc12` [Example 45, (R)-N-(1-(2-(2-hydroxyethoxy)quinolin-4-yl)ethyl)-2-methylbenzamide]: the half-inhibitory concentration (IC50) is 3.48 µM.

Take `Cc1ccccc1C(=O)NC(C)c1cc(C2CCOCC2)nc2ccccc12` (stereo in doubt) [Example 155, 2-methyl-N-{(1R)-1-[2-(oxan-4-yl)quinolin-4-yl]ethyl}benzamide]: the half-inhibitory concentration (IC50) was determined as 0.581 µM.

For `Cc1ccc(CN)cc1C(=O)N[C@H](C)c1cc(-c2cc(C(=O)N(C)C)n(C)c2)nc2ccccc12` [Example 258, (R)-4-(4-(1-(5-(aminomethyl)-2-methylbenzamido)ethyl)quinolin-2-yl)-N,N,1-trimethyl-1H-pyrrole-2-carboxamide], the IC50 is 0.044 µM. For the compound `Cc1ccc(N2CCNCC2)cc1C(=O)NC(C)c1cc(-c2cnn(C)c2)cc2ccccc12` (centres unmarked) [Example 59, 2-methyl-N-(1-(3-(1-methyl-1H-pyrazol-4-yl)naphthalen-1-yl)ethyl)-5-(piperazin-1-yl)benzamide], the concentration for half-maximal inhibition (IC50) is 0.025 µM.

For the compound `CO/C=C/C(=O)NNC(=O)CCc1ccccc1C(=O)N[C@H](C)c1cc(-c2cnn(C)c2)nc2ccccc12` [Example 222, (R,E)-2-(3-(2-(3-methoxyacryloyl)hydrazineyl)-3-oxopropyl)-N-(1-(2-(1-methyl-1H-pyrazol-4-yl)quinolin-4-yl)ethyl)benzamide], the IC50 is 1.98 µM. Take `COC[C@@H](OCc1cocn1)c1ccc(C(=O)NC2(c3cc(-c4cnn(C)c4)cc4nc(C)ccc34)CC2)c(C)c1` (single isomer, unassigned) [Example 365]: the half-inhibitory concentration (IC50) is less than 0.001 µM. Same read-out and setting: as for `Cc1ccc(CN)cc1C(=O)N[C@H](C)c1cc(-n2cncn2)nc2ccccc12` [Example 24, (R)-N-(1-(2-(1H-1,2,4-triazol-1-yl)quinolin-4-yl)ethyl)-5-(aminomethyl)-2-methylbenzamide], the figure is 0.25 µM; as for `Cc1ccccc1C(=O)NC(C)c1cc(NC2(C#N)CC2)nc2ccccc12` (centres unmarked) [Example 145, N-(1-{2-[(1-cyanocyclopropyl)amino]quinolin-4-yl}ethyl)-2-methylbenzamide], 2.52 µM. Same read-out and setting: as for `COC(=O)c1ccc(-c2cc(C(C)NC(=O)c3ccccc3C)c3ccccc3n2)o1` (centres unmarked) [Example 133, methyl 5-{4-[1-(2-methylbenzamido)ethyl]quinolin-2-yl}furan-2-carboxylate], the figure is 0.392 µM; as for `Cc1ccc(N2CC3CN(C)CC3C2)cc1C(=O)N[C@H](C)c1cc(-c2cnn(C)c2)nc2ccccc12` (stereo partly drawn) [Example 262, 2-methyl-N-((R)-1-(2-(1-methyl-1H-pyrazol-4-yl)quinolin-4-yl)ethyl)-5-(5-methylhexahydropyrrolo[3,4-c]pyrrol-2(1H)-yl)benzamide], 0.008 µM. Still for that read-out and setting: as for `CC(=O)Nc1cc([C@@H](C)NC(=O)c2ccccc2C)c2ccccc2n1` [Example 40, (R)—N-(1-(2-acetamidoquinolin-4-yl)ethyl)-2-methylbenzamide], the figure is 3.16 µM; as for `Cc1cc(COCc2cscn2)ccc1C(=O)NC1(c2cc(-c3cc(C(=O)N(C)C)n[nH]3)nc3ccccc23)CC1` [Example 343, N,N-dimethyl-5-(4-(1-(2-methyl-4-((thiazol-4-ylmethoxy)methyl)benzamido)cyclopropyl)quinolin-2-yl)-1H-pyrazole-3-carboxamide], less than 0.001 µM. `Cc1cc(C(C)OCc2cscn2)ncc1C(=O)N[C@H](C)c1cc(-c2cnn(C)c2)nc2ccccc12` (stereo partly drawn) [Example 321, 4-methyl-N—((R)-1-(2-(1-methyl-1H-pyrazol-4-yl)quinolin-4-yl)ethyl)-6-(1-(thiazol-4-ylmethoxy)ethyl)nicotinamide]: the half-maximal inhibitory concentration (IC50) worked out at 0.003 µM. Still for that read-out and setting: as for `Cc1cc(C(=O)NC(C)(C)c2ncc[nH]2)ccc1C(=O)N[C@H](C)c1cc(-c2cnn(C)c2)nc2ccccc12` [Example 244], the figure is 0.167 µM; as for `CCN(C)C(=O)Cn1cc(-c2cc(C3(NC(=O)c4ccc(COCc5cscn5)cc4C)CC3)c3ccccc3n2)cn1` [Example 364], less than 0.001 µM. The same measure, in the same setting: as for `Cc1ccc(NC(=O)[C@H]2CCCCN2)cc1C(=O)NC(C)c1cc(-c2cn[nH]c2)cc2ccccc12` (single isomer, unassigned) [Example 52, (R)—N-(3-(((R*)-1-(3-(1H-pyrazol-4-yl)naphthalen-1-yl)ethyl)carbamoyl)-4-methylphenyl)piperidine-2-carboxamide], the figure is 0.011 µM; as for `Cc1ccccc1C(=O)NC(C)c1cc(-c2ccc(NS(C)(=O)=O)cc2)nc2ccccc12` (centres unmarked) [Example 122, N-[1-(2-{4-[(methanesulfonyl)amino]phenyl}quinolin-4-yl)ethyl]-2-methylbenzamide], 0.201 µM; as for `Cc1ccc(NC(=O)[C@H]2CCCCN2)cc1C(=O)NC(C)c1cc(-c2cnn(C)c2)cc2ccccc12` (stereo partly drawn) [Example 4, (2R)—N-(4-methyl-3-((1-(3-(1-methyl-1H-pyrazol-4-yl)naphthalen-1-yl)ethyl)carbamoyl)phenyl)piperidine-2-carboxamide], 0.023 µM. Regarding `Cc1ccccc1C(=O)NC(C)c1cc(NCC2CCOCC2)nc2ccccc12` (centres unmarked) [Example 141, 2-methyl-N-[1-(2-{[(oxan-4-yl)methyl]amino}quinolin-4-yl)ethyl]benzamide], the IC50 was determined as 0.778 µM.

As for `Cc1cc(COCc2ccccn2)ccc1C(=O)NC1(c2cc(-c3cnn(CC(=O)N(C)C)c3)nc3ccccc23)CC1` [Example 366, N-(1-(2-(1-(2-(dimethylamino)-2-oxoethyl)-1H-pyrazol-4-yl)quinolin-4-yl)cyclopropyl)-2-methyl-4-((pyridin-2-ylmethoxy)methyl)benzamide], the IC50 is less than 0.001 µM. Still for that read-out and setting: as for `Cc1cc(CC(=O)Nc2ncc[nH]2)ccc1C(=O)N[C@H](C)c1cc(-c2cnn(C)c2)nc2ccccc12` [Example 239, (R)-4-(2-((1H-imidazol-2-yl)amino)-2-oxoethyl)-2-methyl-N-(1-(2-(1-methyl-1H-pyrazol-4-yl)quinolin-4-yl)ethyl)benzamide], the figure is 0.007 µM.

For `Cc1ccccc1C(=O)N[C@H](C)c1cc(N)nc2ccccc12` [Example 39, (R)-N-(1-(2-aminoquinolin-4-yl)ethyl)-2-methylbenzamide], the half-maximal inhibitory concentration (IC50) worked out at 0.861 µM. Take `Cc1ccc(N2CCNCC2)cc1C(=O)NC1(c2cc(-c3ccc(C(=O)N(C)C)[nH]3)cc3ccccc23)CC1` [Example 276, N,N-dimethyl-5-(4-(1-(2-methyl-5-(piperazin-1-yl)benzamido)cyclopropyl)naphthalen-2-yl)-1H-pyrrole-2-carboxamide]: the concentration for half-maximal inhibition (IC50) is 0.003 µM.

Take `Cc1ccccc1C(=O)NC(C)c1cc(N(C)CCC(=O)N(C)C)nc2ccccc12` (centres unmarked) [Example 143, N-[1-(2-{[3-(dimethylamino)-3-oxopropyl](methyl)amino}-quinolin-4-yl)ethyl]-2-methylbenzamide]: the IC50 came out at 8.48 µM. Consider `CNC(=O)c1cc(-c2cc([C@@H](C)NC(=O)c3cc(CN)ccc3C)c3ccccc3n2)cn1C` [Example 257, (R)-4-(4-(1-(5-(aminomethyl)-2-methylbenzamido)ethyl)quinolin-2-yl)-N,1-dimethyl-1H-pyrrole-2-carboxamide], for which the IC50 is 0.022 µM. On the same count and under the same terms, as for `Cc1ccccc1C(=O)N[C@H](C)c1cc(OCC2COC2)nc2ccccc12` [Example 44, (R)-2-methyl-N-(1-(2-(oxetan-3-ylmethoxy)quinolin-4-yl)ethyl)benzamide], the figure is 3.97 µM; as for `Cc1ccccc1C(=O)N[C@H](C)c1cc(-c2cnn(C)c2)nc2ccccc12` [Example 49, (R)-2-methyl-N-(1-(2-(1-methyl-1H-pyrazol-4-yl)quinolin-4-yl)ethyl)benzamide], 0.151 µM.

`Cc1cc(CNCc2cscn2)ccc1C(=O)NC(C)c1cc(-c2cnn(C)c2)cc2ccccc12` (centres unmarked) [Example 7, 2-methyl-N-(1-(3-(1-methyl-1H-pyrazol-4-yl)naphthalen-1-yl)ethyl)-4-(((thiazol-4-ylmethyl)amino)methyl)benzamide]: the IC50 was found to be 0.013 µM.
